Reference: patent publication US20250099478A1, “PLASMA KALLIKREIN INHIBITORS” (Merck Sharp & Dohme LLC, priority 2022, published 2025)

Key:
[1] = target: T1, human factor XIa (Homo sapiens, UniProt P03951); assay: Factor XIa Assay; type: biochemical; settings: human factor XIa 0.04 nM, substrate GPR-AFC, 25° C.
T1 construct: with human (0.04 nM) factor XIa
Protocol: (§1) The effectiveness of a compound of the present invention as an inhibitor of Coagulation factor XIa can be determined using a relevant purified serine protease, and an appropriate synthetic substrate. The rate of hydrolysis of the chromogenic or fluorogenic substrate by the relevant serine protease was measured both in the absence and presence of compounds of the present invention. Assays were conducted at rt or at 37° C. […] A decrease in the rate of fluorescence change in the presence of inhibitor is indicative of enzyme inhibition. Such methods are known to one skilled in the art. The results of this assay are expressed as the half-maximal inhibitory concentrations (IC50), or the inhibitory constant, Ki.
Compounds were pre-incubated for 30 min at 25° C. with human (0.04 nM) factor XIa in 50 mM HEPES buffer with 150 mM sodium chloride, 5 mM calcium chloride, 0.1% PEG 8000, pH 7.4. factor XIa enzymatic activity was determined by addition of the substrate glycine-proline-arginine-7-amido-4-trifluoromethylcoumarin (GPR-AFC) and measurement of the fluorescence at 400/505 nm after a 60 min incubation at 25° C. The % inhibition for each data point was calculated from the data and analyzed using the log (inhibitor) vs. response four parameters equation to determine the half-maximal inhibitory concentrations (IC50). The IC50 were converted to equilibrium inhibitory constants (Ki) using the Cheng-Prusoff equation.

[2] = target: T2, Human plasma kallikrein (Homo sapiens, UniProt P03952); assay: Plasma Kallikrein Assay; type: biochemical; settings: purified Human plasma kallikrein 0.5 nM, substrate Acetyl-K-P-R-AFC; read-out: PKal IC50
T2 construct: yields a heavy chain (371 amino acids) and a light chain (248 amino acids); purchased Enzyme Research Laboratories
T2 sequence (P03952 391-638 limits assumed): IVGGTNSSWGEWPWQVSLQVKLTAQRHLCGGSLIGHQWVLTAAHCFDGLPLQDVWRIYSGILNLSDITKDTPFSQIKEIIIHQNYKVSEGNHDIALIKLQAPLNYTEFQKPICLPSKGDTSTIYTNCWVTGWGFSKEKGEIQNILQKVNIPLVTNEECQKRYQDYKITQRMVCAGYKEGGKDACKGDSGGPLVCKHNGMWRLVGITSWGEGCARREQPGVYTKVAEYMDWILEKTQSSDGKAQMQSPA
T2 sequence (P03952 20-390 partner limits assumed): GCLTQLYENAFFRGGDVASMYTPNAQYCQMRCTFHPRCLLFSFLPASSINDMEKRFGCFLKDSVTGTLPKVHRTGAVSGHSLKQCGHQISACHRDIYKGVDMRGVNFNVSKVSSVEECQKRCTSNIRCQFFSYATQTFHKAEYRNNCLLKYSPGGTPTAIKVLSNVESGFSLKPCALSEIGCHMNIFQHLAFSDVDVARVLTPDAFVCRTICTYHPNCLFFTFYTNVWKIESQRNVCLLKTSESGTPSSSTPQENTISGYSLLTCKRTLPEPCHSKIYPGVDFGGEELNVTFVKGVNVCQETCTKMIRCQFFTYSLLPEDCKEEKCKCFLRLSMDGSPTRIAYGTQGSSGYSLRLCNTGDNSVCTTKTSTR
Protocol: as §1, with “plasma kallikrein” for “Coagulation factor XIa”
Plasma kallikrein determinations were made in 50 mM HEPES buffer at pH 7.4 containing 150 mM NaCl, 5 mM CaCl2), and 0.1% PEG 8000 (polyethylene glycol; Fisher Scientific). Determinations were made using purified Human plasma kallikrein at a final concentration of 0.5 nM (Enzyme Research Laboratories) and the synthetic substrate, Acetyl-K-P-R-AFC (Sigma #C6608) at a concentration of […].
Times required to achieve equilibration between enzyme and inhibitor were determined in control experiments. […] IC50 was determined by inflection point from a four parameter logistic curve fit. Ki was calculated using the Cheng Prusoff equation, Ki=IC50/(1+([S]/Km)).

T1 sequence (P03951 388-625 limits assumed): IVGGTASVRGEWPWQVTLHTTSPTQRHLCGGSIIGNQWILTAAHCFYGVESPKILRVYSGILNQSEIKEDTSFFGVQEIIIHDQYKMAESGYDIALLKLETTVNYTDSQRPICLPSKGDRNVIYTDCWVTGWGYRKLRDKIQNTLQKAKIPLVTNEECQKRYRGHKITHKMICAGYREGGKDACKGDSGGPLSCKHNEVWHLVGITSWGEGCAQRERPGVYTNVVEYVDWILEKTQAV
T1 sequence (P03951 19-387 partner limits assumed): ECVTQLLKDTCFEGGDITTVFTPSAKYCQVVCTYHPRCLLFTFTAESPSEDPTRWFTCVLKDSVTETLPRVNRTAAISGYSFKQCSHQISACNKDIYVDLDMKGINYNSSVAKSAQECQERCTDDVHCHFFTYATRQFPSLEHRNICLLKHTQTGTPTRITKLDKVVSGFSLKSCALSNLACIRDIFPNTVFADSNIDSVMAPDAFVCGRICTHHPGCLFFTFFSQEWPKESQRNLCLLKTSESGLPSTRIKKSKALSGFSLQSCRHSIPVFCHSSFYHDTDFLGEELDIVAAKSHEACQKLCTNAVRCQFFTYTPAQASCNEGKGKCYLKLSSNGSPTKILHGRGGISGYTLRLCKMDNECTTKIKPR

| SMILES | IC50 [1] [µM] | IC50 [2] [µM] |
| --- | --- | --- |
| O=C1Nc2ccc(Cl)c(F)c2[C@@]2(CCCN(C(=O)c3cnn(Cc4ccccc4)c3)C2)O1 [Example 3, (R)-1′-(1-Benzyl-1H-pyrazole-4-carbonyl)-6-chloro-5-fluorospiro[benzo[d][1,3]oxazine-4,3′-piperidin]-2(1H)-one] | 1.38 |  |
| O=C1Nc2ccc(Cl)c(F)c2[C@@]2(CCCN(C(=O)c3cnc(Cc4ccc(F)cc4)[nH]3)C2)O1 [Example 76, (R)-6-Chloro-5-fluoro-1′-(2-(4-fluorobenzyl)-1H-imidazole-5-carbonyl)spiro[benzo[d][1,3]oxazine-4,3′-piperidin]-2(1H)-one] | 4.58 | 0.0161 |
| CCC(c1ccc(F)cc1)n1cc(C(=O)N2CCC[C@@]3(C2)OC(=O)Nc2ccc(Cl)c(F)c23)cn1 (single isomer, unassigned) [Example 25] | 0.21 | 0.0104 |
| O=C1Nc2ccc(Cl)c(F)c2[C@@]2(CCCN(C(=O)c3nnc(Cc4cc(F)cc(F)c4)[nH]3)C2)O1 [Example 120, (R)-6-Chloro-1′-(5-(3,5-difluorobenzyl)-4H-1,2,4-triazole-3-carbonyl)-5-fluorospiro[benzo[d][1,3]oxazine-4,3′-piperidin]-2(1H)-one] |  | 0.0211 |
| O=C1Nc2ccc(Cl)c(F)c2[C@@]2(CCCN(C(=O)c3cnn(Cc4ccc5c(c4)COCC5)c3)C2)O1 [Example 56, (R)-6-Chloro-5-fluoro-1′-(1-(isochroman-7-ylmethyl)-1H-pyrazole-4-carbonyl)spiro[benzo[d][1,3]oxazine-4,3′-piperidin]-2(1H)-one] |  | 0.0109 |
| O=C1Nc2ccc(Cl)c(F)c2[C@@]2(CCCN(C(=O)c3nnc([C@](O)(c4ccccc4)C(F)(F)F)[nH]3)C2)O1 [Example 108, (R)-6-Chloro-5-fluoro-1′-(5-((R)-2,2,2-trifluoro-1-hydroxy-1-phenylethyl)-4H-1,2,4-triazole-3-carbonyl)spiro[benzo[d][1,3]oxazine-4,3′-piperidin]-2(1H)-one] |  | 0.0201 |
| Cc1ccc(Cc2nnc(C(=O)N3CCC[C@@]4(C3)OC(=O)Nc3ccc(Cl)c(F)c34)[nH]2)cc1C [Example 126, (R)-6-Chloro-1′-(5-(3,4-dimethylbenzyl)-4H-1,2,4-triazole-3-carbonyl)-5-fluorospiro[benzo[d][1,3]oxazine-4,3′-piperidin]-2(1H)-one] |  | 0.0331 |
| O=C1Nc2ccc(Cl)c(F)c2[C@@]2(CCCN(C(=O)c3cnn(Cc4cccc(C5CC5)c4)c3)C2)O1 [Example 10, (R)-6-Chloro-1′-(1-(3-cyclopropylbenzyl)-1H-pyrazole-4-carbonyl)-5-fluorospiro[benzo[d][1,3]oxazine-4,3′-piperidin]-2(1H)-one] |  | 0.0268 |
| O=C1Nc2ccc(Cl)c(F)c2[C@@]2(CCCN(C(=O)c3cnn(Cc4ccc5c(c4)CNC5=O)c3)C2)O1 [Example 61, (R)-6-chloro-5-fluoro-1′-(1-((1-oxoisoindolin-5-yl)methyl)-1H-pyrazole-4-carbonyl)spiro[benzo[d][1,3]oxazine-4,3′-piperidin]-2(1H)-one] |  | 0.0365 |
| Nc1noc2ccc(Cn3cc(C(=O)N4CCC[C@@]5(C4)OC(=O)Nc4ccc(Cl)c(F)c45)cn3)cc12 [Example 57, (R)-1′-(1-((3-Aminobenzo[d]isoxazol-5-yl)methyl)-1H-pyrazole-4-carbonyl)-6-chloro-5-fluorospiro[benzo[d][1,3]oxazine-4,3′-piperidin]-2(1H)-one] |  | 0.0297 |
| O=C1Nc2ccc(Cl)c(F)c2[C@@]2(CCCN(C(=O)c3cnn(Cc4ccc5ccsc5c4)c3)C2)O1 [Example 55, (R)-1′-(1-(Benzo[b]thiophen-6-ylmethyl)-1H-pyrazole-4-carbonyl)-6-chloro-5-fluorospiro[benzo[d][1,3]oxazine-4,3′-piperidin]-2(1H)-one] |  | 0.0171 |

More lines, in order of falling IC50 [2], values ahead:

| IC50 [1] [µM] | IC50 [2] [µM] | SMILES |
| --- | --- | --- |
| 1.37 | 0.0097 | O=C1Nc2ccc(Cl)c(F)c2[C@@]2(CCCN(C(=O)c3nnc(C(CC(F)(F)F)c4ccccc4)[nH]3)C2)O1 (single isomer, unassigned) [Example 99] |
| 2.42 | 0.0059 | CCC(c1c(C)noc1C)n1cc(C(=O)N2CCC[C@@]3(C2)OC(=O)Nc2ccc(Cl)c(F)c23)cn1 (single isomer, unassigned) [Example 44] |
| 4.35 | 0.0057 | CCC(c1cccc(S(C)(=O)=O)c1)n1cc(C(=O)N2CCC[C@@]3(C2)OC(=O)Nc2ccc(Cl)c(F)c23)cn1 (single isomer, unassigned) [Example 30] |
| 2.49 | 0.0056 | O=C1Nc2ccc(Cl)c(F)c2[C@@]2(CCCN(C(=O)c3nnc(C4(c5ccc(F)cc5)CCOCC4)[nH]3)C2)O1 [Example 94, (R)-6-Chloro-5-fluoro-1′-(5-(4-(4-fluorophenyl)tetrahydro-2H-pyran-4-yl)-4H-1,2,4-triazole-3-carbonyl)spiro[benzo[d][1,3]oxazine-4,3′-piperidin]-2(1H)-one] |
|  | 0.0056 | O=C1Nc2ccc(Cl)c(F)c2[C@]2(CCN(C(=O)C3(F)CCN(Cc4ccc(Cn5ccccc5=O)cc4)CC3)C2)O1 [Example 138, (4S)-6-Chloro-5-fluoro-1′-(4-fluoro-1-(4-((2-oxopyridin-1(2H)-yl)methyl)benzyl)piperidine-4-carbonyl)spiro[benzo[d][1,3]oxazine-4,3′-pyrrolidin]-2(1H)-one] |
| 0.995 | 0.0055 | CCC(c1ccc(F)cc1)c1c[nH]c(C(=O)N2CCC[C@@]3(C2)OC(=O)Nc2ccc(Cl)c(F)c23)n1 (single isomer, unassigned) [Example 71, (R)-6-Chloro-5-fluoro-1′-(4-((R or S)-1-(4-fluorophenyl)propyl)-1H-imidazole-2-carbonyl)spiro[benzo[d][1,3]oxazine-4,3′-piperidin]-2(1H)-one] |
| 1.36 | 0.0053 | COCC(c1ccccc1)c1n[nH]c(C(=O)N2CCC[C@@]3(C2)OC(=O)Nc2ccc(Cl)c(F)c23)n1 (stereo partly drawn) [Example 130, (4R)-6-Chloro-5-fluoro-1′-(3-(2-methoxy-1-phenylethyl)-1H-1,2,4-triazole-5-carbonyl)spiro[benzo[d][1,3]oxazine-4,3′-piperidin]-2(1H)-one] |
| 1.35 | 0.004 | CCC(c1ccc2[nH]ncc2c1)n1cc(C(=O)N2CCC[C@@]3(C2)OC(=O)Nc2ccc(Cl)c(F)c23)cn1 (single isomer, unassigned) [Example 39] |
| 1.13 | 0.0036 | CCC(c1ccc(F)cc1)c1nnc(C(=O)N2CC(C)(C)C[C@@]3(C2)OC(=O)Nc2ccc(Cl)c(F)c23)[nH]1 (single isomer, unassigned) [Example 102] |
| 1.45 | 0.0026 | CCC(c1ccnc(C(F)(F)F)c1)n1cc(C(=O)N2CCC[C@@]3(C2)OC(=O)Nc2ccc(Cl)c(F)c23)cn1 (single isomer, unassigned) [Example 37] |
| 1.02 | 0.0026 | CCC(c1ccc2cnccc2c1)n1cc(C(=O)N2CCC[C@@]3(C2)OC(=O)Nc2ccc(Cl)c(F)c23)cn1 (single isomer, unassigned) [Example 35] |
| 1.45 | 0.0022 | O=C1Nc2ccc(Cl)c(F)c2[C@@]2(CCCN(C(=O)c3nnc(C(CC(F)(F)F)c4cccc(Cl)c4)[nH]3)C2)O1 (single isomer, unassigned) [Example 100] |
| 0.179 | 0.0019 | CC[C@H](c1ccc(F)cc1)c1ncc(C(=O)N2CCC[C@@]3(C2)OC(=O)Nc2ccc(Cl)c(F)c23)[nH]1 (single isomer, unassigned) [Example 80] |
| 2.06 | 0.0018 | CCC(c1ccnc(C(F)(F)F)c1)n1cc(C(=O)N2CCC[C@@]3(C2)OC(=O)Nc2ccc(Cl)c(F)c23)cn1 (single isomer, unassigned) [Example 38] |
| 0.194 | 0.0017 | CC[C@@H](c1ccc(F)cc1)c1ncc(C(=O)N2CCC[C@@]3(C2)OC(=O)Nc2ccc(Cl)c(F)c23)[nH]1 (single isomer, unassigned) [Example 79] |
| 0.795 | 0.0016 | O=C1Nc2ccc(Cl)c(F)c2[C@@]2(CCCN(C(=O)c3nnc(C(c4ccccc4)C4CC4)[nH]3)C2)O1 (single isomer, unassigned) [Example 106] |
| 1.56 | 0.001 | CCC(c1ccc2c(c1)COC2)c1nnc(C(=O)N2CCC[C@@]3(C2)OC(=O)Nc2ccc(Cl)c(F)c23)[nH]1 (single isomer, unassigned) [Example 112] |
